According to PMC10606064, “2-Aminothiazole-Flavonoid Hybrid Derivatives Binding to Tau Protein and Responsible for Antitumor Activity in Glioblastoma” (International Journal of Molecular Sciences, 2023):
Like-named read-outs stand apart in the source and are kept apart here.

Key:
[1] = test system: U87 shCTRL cells; assay: Mitotic index by high-content imaging, U87 shCTRL; format: cell-based, human; conditions: 48 h, 5-times IC50 of compounds
Experimental: (§1) For scoring mitotic indexes, an automated high-content screening confocal microscopy approach was employed to identify cells undergoing mitosis from a large population of cells. For this, cells nuclei were stained with DAPI. Briefly, fibronectin-coated clear-glass-bottom black 96-well imaging plates were seeded with 100 µL of cell suspension (60,000 cell.mL^−1) in each well, with both U87 shCTRL and U87 ShTau cell lines. Cells were treated with 5-times IC50 of compounds for 48 h, then they were fixated inside the palates with 4% formaldehyde (in PBS pH 7.4) for 20 min at room temperature, permeabilized with PBS-Triton X-100 0.5% for 10 min at room temperature. DNA was then stained with DAPI (10 µg.mL^−1) for 5 min at room temperature and in the darkness. After being washed, cells were kept in PBS at 4 °C and imaged while in PBS. Automated confocal microscopy was carried out using an Opera Phenix (PerkinElmer) high-content screening microscope using a 20× Air/0.4 NA air objective. For each condition, 6 wells were prepared and a total of 61 fields were acquired for each well. Image analysis was performed using Harmony high-content analysis v4.8 software and PhenoLOGIC Machine Learning technology, which uses a learn-by-example approach. As a first step, nuclei were segmented and multiple parameters for these nuclei were calculated using Harmony v4.8 software building blocks. After training, PhenoLOGIC Machine Learning then selects the best parameters to detect nuclei undergoing the M phase of mitosis. From this, the mitotic index of each condition was calculated by dividing the number of cells undergoing mitosis over the total number of cells.

[2] = test system: U87 shCTRL cells; assay: Cell cycle by flow cytometry (propidium iodide), U87 shCTRL; format: cell-based, human; conditions: 48 h, compounds 10 µM, NOC 1 µM
Experimental: (§2) Measurements of cell cycle from DNA content were performed by flow cytometry as described before. Briefly, 4.10^5 cells in exponential growth were seeded in 6-well plates. After 24 h, they were treated with 10 µM of compounds for 48 h. Nocodazole was used as a positive control with a concentration of 1 µM. The trypsinized cells were harvested and then centrifuged (1200 rpm, 5 min, at room temperature). The cell pellet was resuspended in 1 mL of PBS 1× at 4 °C, and then an extra 4 mL of cold PBS was added to wash the pellet. Cells were then centrifuged again (1200 rpm, 5 min, at 4 °C). To fixate the cells, the pellet was resuspended in 100 µL of cold 70% ethanol, then an additional 900 µL was added and cells were incubated for 30 min at −20 °C. After that, 9 mL of cold PBS was added, and cells were centrifuged (2000 rpm, 5 min, at 4 °C) to remove ethanol. The cell pellet was then resuspended in the staining mix containing 50 µg.mL^−1 of propidium iodide (Molecular Probes, Paris, France) and 100 µg.mL^−1 of RNAse A (Sigma-Aldrich, Saint-Quentin-Fallavier, France) in PBS for 20 min at room temperature in darkness. Samples were analyzed on a Beckman–Coulter–Gallios flow cytometer using the Kaluza for Gallios Acquisition v1.0 software. Propidium iodide was excited at 488 nm, and fluorescence was analyzed at 620 nm on channel FL-3. For the analysis, there is considerable overlap between early S phase and G1 and between late S phase and G2/M due to broadening of the distribution caused by variability in the staining of the cells and instrumental variability. Therefore, the percentages of cells in the sub-G1, G1, S, and G2/M phases of the cell cycle were calculated using the Watson et al. algorithm for cell cycle analysis in Kaluza for Gallios Analysis v2.1 software. The software automatically adjusted gates based on PI median fluorescence intensity of the cells and their frequency among total cells. The number of cells in each phase was divided by the total number of analyzed cells, and the values were reported as percentage of the total cells for each cell cycle phase.

[3] = test system: U87 shTau cells; assay: Mitotic index by high-content imaging, U87 shTau; format: cell-based, human; conditions: 48 h, 5-times IC50 of compounds
Experimental: as §1

[4] = test system: U87 shTau cells; assay: Cell cycle by flow cytometry (propidium iodide), U87 shTau; format: cell-based, human; conditions: 48 h, compounds 10 µM, NOC 1 µM
Experimental: as §2

[5] = test system: T98G glioblastoma cells; assay: MTT cell viability assay, T98G; format: cell-based; conditions: Homo sapiens, 72 h, mean ± SEM, read-out: IC50 (metabolic activity)
Experimental: (§3) Cells harvested from sub-confluent monolayers were seeded at 15,000 cells per mL in a 96-well microtiter plate (Cambridge Technology, Labège, France) and cultured for 24 h under standard conditions. Standard medium was then replaced by fresh medium containing no drugs or compounds at different concentrations. The surviving cells were quantified after 72 h by the MTT assay, according to the manufacturer’s instructions. Briefly, 20 µL of 3-(4,5-diMethylThiazol-2-yl)-2,5diphenyl Tetrazolium bromide (MTT) solution at 5 mg.mL^−1 was added to cells for 3 h at 37 °C. The supernatant was discarded and replaced by 100 µL of dimethyl sulfoxide to dissolve formazan crystals. The absorbance was then read at 600 nm by spectrophotometry. For all concentrations of a given compound, cell viability was expressed as the percentage of the ratio between the mean absorbance of treated cells and the mean absorbance of untreated cells. Three independent experiments were performed, and the data were expressed as percentage of survival (using the untreated cells as 100%) and subjected to statistical analysis (n = 3). The IC50 was calculated using the Chou and Talalay method.

[6] = test system: Caco-2 colon adenocarcinoma cells; assay: MTT cell viability assay, Caco-2; format: cell-based; conditions: Homo sapiens, Caco-2 (not expressing Tau), 72 h, mean ± SEM, read-out: IC50 (metabolic activity)
Experimental: as §3

[7] = test system: U87 glioblastoma cells; assay: MTT cell viability assay, U87; format: cell-based, human; conditions: Homo sapiens; U87, 72 h, MTT; mean ± SEM; read-out: IC50 (metabolic activity)
Experimental: as §3

[8] = test system: U138 glioblastoma cells; assay: MTT cell viability assay, U138; format: cell-based; conditions: Homo sapiens, U138, 72 h, mean ± SEM, read-out: IC50 (metabolic activity)
Experimental: as §3

[9] = molecular target: T1, Tau protein (full-length human Tau, hTau40) (Homo sapiens, UniProt P10636); assay: Tau intrinsic fluorescence quenching, modified Stern–Volmer binding parameters; conditions: 5 µM Tau, buffer B pH 6.8, mean ± SD; for Kd: read-out: Equilibrium Binding Constants to Tau, KD
T1 construct: The full-length human Tau (hTau40) was expressed in a transformed E. coli BL21 (DE3) strain; made in house; host or cells: E. coli BL21 (DE3)
T1 sequence (P10636 1-441 isoform P10636-8): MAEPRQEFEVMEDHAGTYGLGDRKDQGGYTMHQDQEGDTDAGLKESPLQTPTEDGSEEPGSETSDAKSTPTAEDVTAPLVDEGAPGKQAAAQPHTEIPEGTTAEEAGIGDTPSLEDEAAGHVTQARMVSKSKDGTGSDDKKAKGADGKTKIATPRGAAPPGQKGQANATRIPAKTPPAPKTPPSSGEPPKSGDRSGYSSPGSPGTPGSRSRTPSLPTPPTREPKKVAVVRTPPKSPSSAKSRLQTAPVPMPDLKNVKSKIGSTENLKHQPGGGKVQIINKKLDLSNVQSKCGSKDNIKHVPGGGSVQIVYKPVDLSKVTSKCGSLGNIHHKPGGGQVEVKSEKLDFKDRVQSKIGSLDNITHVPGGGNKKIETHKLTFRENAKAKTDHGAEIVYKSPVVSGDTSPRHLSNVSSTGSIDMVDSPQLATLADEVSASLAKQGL
Experimental: Fluorescence measurements were performed with a Horiba Jobin Yvon FluoroMax-3 spectrofluorometer. […] For experiments, the excitation wavelength was fixed at 275 nm, and the emission spectra were recorded between 280 nm and 500 nm at room temperature. The inner filter effects were corrected according to Lakowicz as follows:F = Fobs × exp{(Aem + Aex)/2}(2) where Fobs and F are the observed and corrected fluorescence values at the emission wavelength of 303 nm. Aex and Aem are the absorptions at the excitation and emission wavelengths, respectively, calculated with A = ε.l.C, in which ε is the extinction coefficient of Tau, l is the path length of cuvette, and C is Tau concentration.
The total fluorescence in the absence of quencher (F0) is given by:F0 = F0a + F0b(4) where 0 refers to the fluorescence intensity in the absence of quencher.
In the presence of quencher, we defined fa as the fraction of the initial fluorescence of Tau accessible to compounds:fa = F0a/(F0a + F0b)(5)
Therefore, the intensity of the accessible fraction (fa) is decreased according to the Stern–Volmer equation, whereas the buried fraction is not quenched, as given by:F = {F0a/(1 + K.[Q])} + F0b(6)
Then, subtraction of Equations (6) and (4) yields:ΔF = F0 − F = F0a × {K.[Q]/(1 + K.[Q])}(7)
At last, inversion of Equation (7) followed by division into Equation (4) yields:F0/ΔF = {1/(fa.K.[Q])} + 1/fa(8)
We applied this modified form of the Stern–Volmer equation to graphically determine the values of fa and K. For our experiments, we plotted F0/ΔF against 1/[Q], then we determined the fa value at the point of intersection with the y-axis, while the slope represented (faK)^−1.

[10] = molecular target: T2, mature Tau aggregates (Homo sapiens, UniProt P10636); assay: Dissolution of preformed (mature) Tau aggregates, ThS fluorescence; format: biochemical; conditions: 10, 30 and 100 µM added to ThS-labelled aggregates after 8 h, 37 °C
T2 construct: The full-length human Tau (hTau40) was expressed in a transformed E. coli BL21 (DE3) strain; made in house; host or cells: E. coli BL21 (DE3)
T2 sequence (P10636 1-441 isoform P10636-8): as above
Experimental: Moreover, we performed a qualitative study of the ability of QCT and compounds 1, 5, and 9 to dissolve preformed Tau aggregates (Figure 3).
Eight-hour time courses were performed with ThS to monitor heparin-induced Tau aggregation by spectrofluorometry at 520 nm (37 °C), then 10, 30, and 100 µM of compounds (curves b–d) were added to the ThS-labelled Tau aggregates. A control was performed without compound (curve a).

[11] = test system: U251 glioblastoma cells; assay: MTT cell viability assay, U251; format: cell-based; conditions: Homo sapiens, U-251, U251, 72 h, mean ± SEM, read-out: IC50 (metabolic activity)
Experimental: as §3

[12] = molecular target: T3, full-length human Tau (hTau40) (Homo sapiens, UniProt P10636); assay: Tau oligomerization inhibition assay (heparin-induced, thioflavin S fluorescence); format: biochemical
T3 construct: The full-length human Tau (hTau40) was expressed in a transformed E. coli BL21 (DE3) strain; made in house; host or cells: E. coli BL21 (DE3)
T3 sequence (P10636 1-441 isoform P10636-8): as above
Experimental: Tau oligomerization inhibition assay was performed at 37 °C in 96-well plates by monitoring thioflavin-S fluorescence at 520 nm after excitation at 440 nm using a microplate reader (POLARstar Omega system, BMG Labtech, Paris, France). The Tau oligomerization process was induced by heparin. […] The plates were shaken at 200 rpm for 10 s before each measurement. The real value of fluorescence at the plateau was determined using SciDAVis v1.23 software. Data were fitted to the SciDAVis built-in ExpGrowth equation by means of nonlinear least-squares regression analysis. Y = Y0 + A × exp(x/t)(1)
The unscaled Levenberg–Marquardt algorithm was used, and initial values were given to Y0, A, and t. The final Y0 value of the model corresponds to the plateau value. The plateau values were then used to calculate the Tau oligomerization inhibition percentage. The IC50 for each compound was calculated from the scatter plot of Tau oligomerization inhibition (in percentage) as a function of log10 of compound concentration. The IC50 value (in µM) thus corresponds to ten raised to the power of […].

[13] = test system: GBM cells (U87, U251, U138, and T98G); assay: MTT assay across the Tau-expressing GBM cell models; format: cell-based, human
Experimental: as §3

[14] = test system: R3 peptide; parameters: method as in PMID 34743390; conditions: 10 µM, AFM analysis; cited from earlier work
[15] = 2 µM Tau, heparin-induced, ThS, buffer A pH 6.9, 25 °C per table footnote (37 °C in method), mean ± SD, read-out: Inhibition of Aggregation IC50

In the case of `COC(=O)Nc1nc2ccc(C(=O)c3cccs3)cc2[nH]1` [NOC, nocodazole, reference compound], the mitotic index [1] is reported as 9.38 ± 3.55%, the “%G1 (cells in G1 phase)” value [2] is reported as 10 ± 3% and the “%G2/M (cells in G2/M phase)” value [2] is reported as 82 ± 6%. For the same molecule, the mitotic index [3] was 23.0 ± 4.01%, the “%G1 (cells in G1 phase)” value [4] was 9 ± 7% and the “%G2/M (cells in G2/M phase)” value [4] was 77 ± 4%.

With `Nc1nc(-c2ccc3oc(-c4ccccc4)cc(=O)c3c2)cs1` [Compound 1] the IC50 [5] was 4.2 ± 0.7 µM, the IC50 [6] was 33.2 ± 13.3 µM and the IC50 [7] was 22.4 ± 5.2 µM. For the same molecule, the IC50 [8] was 6.4 ± 1.3 µM, the “Equilibrium Binding Constants to Tau, fA (Tyr accessible fraction)” value [9] was 0.39 ± 0.08 and the Kd [9] was 7 ± 2.3 µM. The “Ability to dissolve mature (preformed) Tau aggregates” value [10] was “able to dissolve mature Tau aggregates”, the IC50 [11] was 6.7 ± 2.2 µM and the IC50 [12, 15] was 92 ± 9.6 µM. It also gave an IC50 ([13]; Homo sapiens, U87, U251, U138, T98G, 72 h MTT, read-out: IC50 among the Tau-expressing GBM cell models) of 4.2 to 22.4 µM.

Work on `COc1c(-c2cccc(F)c2)oc2ccc3nc(N)sc3c2c1=O` [Compound 14] yielded an IC50 [5] of 2.7 ± 0.5 µM, an IC50 [7] of 1.1 ± 0.2 µM and an IC50 [8] of 1.4 ± 0.2 µM. The “Equilibrium Binding Constants to Tau, fA (Tyr accessible fraction)” value [9] was 0.21 ± 0.04, the Kd [9] was 4.2 ± 0.3 µM and the IC50 [11] was 1.3 ± 0.5 µM. For the same molecule, the IC50 [12, 15] was 11.7 ± 2 µM and the “efficacy fold higher than 13 and 15” value ([13]; GBM cells) was “up to 6 fold”.

With `O=c1c(O)c(-c2ccc(O)c(O)c2)oc2cc(O)cc(O)c12` [QCT, quercetin, reference compound] the IC50 [5] was > 100 µM, the IC50 [6] was > 100 µM and the IC50 [7] was > 100 µM. For the same molecule, the IC50 [8] was > 100 µM, the “Equilibrium Binding Constants to Tau, fA (Tyr accessible fraction)” value [9] was 0.12 ± 0.04 and the Kd [9] was 2.4 ± 0.6 µM. The R3 peptide fibrillation [14] was “abrogated R3 peptide fibrillation”, the “Ability to dissolve mature (preformed) Tau aggregates” value [10] was “able to dissolve mature Tau aggregates” and the IC50 [11] was > 100 µM. The IC50 [12] was 17.3 ± 0.6 µM.
